Test results as given in patent publication US20260125370A1, “SULFOXIMINE COMPOUNDS AS HISTONE DEACETYLASE 6 INHIBITOR, AND PHARMACEUTICAL COMPOSITION COMPRISING THE SAME” (CHONG KUN DANG PHARMACEUTICAL CORP., priority 2022, published 2026).

Experiments:
[1] = target: T1, human recombinant HDAC6 (Homo sapiens, UniProt Q9UBN7); assay: HDAC6 enzyme activity inhibition (fluorimetric, in vitro); assay type: biochemical; conditions: samples at 0.1, 1, 10, 100 and 1000 nM
T1 construct: purchased Calbiochem 382180
T1 sequence (Q9UBN7 1-1215): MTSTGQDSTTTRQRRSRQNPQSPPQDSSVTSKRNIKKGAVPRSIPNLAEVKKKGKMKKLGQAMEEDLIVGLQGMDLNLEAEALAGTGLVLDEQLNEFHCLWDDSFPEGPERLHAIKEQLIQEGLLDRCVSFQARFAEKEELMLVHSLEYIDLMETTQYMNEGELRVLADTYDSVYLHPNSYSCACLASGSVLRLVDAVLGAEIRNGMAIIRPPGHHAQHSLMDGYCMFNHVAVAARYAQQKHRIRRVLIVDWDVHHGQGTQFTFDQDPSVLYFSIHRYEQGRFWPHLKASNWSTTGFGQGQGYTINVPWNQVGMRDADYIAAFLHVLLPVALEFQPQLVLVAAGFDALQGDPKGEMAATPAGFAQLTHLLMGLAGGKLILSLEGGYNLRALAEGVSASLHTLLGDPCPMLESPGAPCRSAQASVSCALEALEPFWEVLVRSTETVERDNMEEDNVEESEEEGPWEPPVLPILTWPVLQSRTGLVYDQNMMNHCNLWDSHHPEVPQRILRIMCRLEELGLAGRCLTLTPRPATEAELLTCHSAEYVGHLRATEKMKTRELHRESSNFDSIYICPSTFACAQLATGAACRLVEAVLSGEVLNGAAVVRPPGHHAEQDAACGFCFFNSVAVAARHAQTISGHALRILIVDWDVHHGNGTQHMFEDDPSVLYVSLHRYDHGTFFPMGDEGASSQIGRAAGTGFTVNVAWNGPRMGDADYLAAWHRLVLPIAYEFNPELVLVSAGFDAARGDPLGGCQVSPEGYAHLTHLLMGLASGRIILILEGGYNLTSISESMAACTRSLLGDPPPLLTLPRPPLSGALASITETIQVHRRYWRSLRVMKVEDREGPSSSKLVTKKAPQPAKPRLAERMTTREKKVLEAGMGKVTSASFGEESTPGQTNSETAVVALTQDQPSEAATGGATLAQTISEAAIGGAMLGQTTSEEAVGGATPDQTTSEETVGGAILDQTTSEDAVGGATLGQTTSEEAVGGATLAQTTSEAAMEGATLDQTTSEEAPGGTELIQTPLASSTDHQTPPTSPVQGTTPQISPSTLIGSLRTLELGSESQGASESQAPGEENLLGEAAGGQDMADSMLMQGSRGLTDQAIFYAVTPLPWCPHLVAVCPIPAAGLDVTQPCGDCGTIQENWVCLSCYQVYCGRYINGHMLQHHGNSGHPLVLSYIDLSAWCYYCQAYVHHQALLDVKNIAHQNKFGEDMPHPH
Procedure: (§1) A HDAC enzyme inhibitory capacity of a test material was measured by using HDAC1 Fluorimetric Drug Discovery Assay Kit (Enzolifesciences: BML-AK511) and HDAC6 human recombinant (Calbiochem: 382180). For a HDAC1 assay, samples were treated at a concentration of 100, 1000 and 10000 nM. For a HDAC6 assay, samples were treated at a concentration of 0.1, 1, 10, 100 and 1000 nM.
(§2) For the test on the HDAC1 enzyme activity, human recombinant HDAC1 (BML-SE456) was used as a zymogen and Fluor de Lys®-SIRT1 (BNL-KI177) was used as a substrate. A 5-fold dilution of the compound was divided into a 96-well plate, after which 0.3 μg of the enzyme and […] of the substrate were inserted into each well and subjected to reaction at 37° C. for 60 minutes, such that Fluor de Lys® Developer II (BML-K1176) was inserted thereinto and subjected to reaction for 30 minutes and finished. After that, a fluorescence value (Ex 360, Em 460) was measured with a multi-plate reader (FlexStation 3, Molecular Device). An experiment on HDAC6 enzyme was conducted in accordance with the same protocol as in the HDAC1 enzyme activity test method by using human recombinant HDAC6 (382180) of Calbiochem Inc. For final result values, each IC50 value was calculated with GraphPad Prism 4.0 program.

[2] = target: T2, human recombinant HDAC1 (Homo sapiens, UniProt Q13547); assay: HDAC1 enzyme activity inhibition (HDAC1 Fluorimetric Drug Discovery Assay Kit, in vitro); assay type: biochemical; conditions: samples at 100, 1000 and 10000 nM
T2 construct: purchased Enzolifesciences BML-SE456
Procedure: as §1, §2

T2 sequence (Q13547 whole entry): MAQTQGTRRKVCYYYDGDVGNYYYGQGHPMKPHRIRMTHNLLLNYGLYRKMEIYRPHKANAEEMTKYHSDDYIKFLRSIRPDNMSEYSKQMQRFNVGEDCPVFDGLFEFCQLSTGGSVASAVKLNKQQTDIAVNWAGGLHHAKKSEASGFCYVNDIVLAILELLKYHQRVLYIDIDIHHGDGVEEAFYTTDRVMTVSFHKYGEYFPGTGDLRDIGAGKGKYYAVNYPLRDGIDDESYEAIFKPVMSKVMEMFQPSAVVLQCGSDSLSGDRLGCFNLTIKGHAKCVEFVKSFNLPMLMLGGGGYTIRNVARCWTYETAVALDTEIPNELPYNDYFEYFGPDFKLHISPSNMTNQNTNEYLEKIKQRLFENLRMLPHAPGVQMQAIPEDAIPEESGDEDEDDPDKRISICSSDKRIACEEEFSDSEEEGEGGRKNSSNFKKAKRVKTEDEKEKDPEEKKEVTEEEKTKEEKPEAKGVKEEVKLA

SMILES | IC50 [1] | IC50 [2]
N=S1(=O)CCN(S(=O)(=O)N(Cc2ncc(-c3nnc(C(F)F)o3)cc2F)c2ccc(F)cc2)CC1 [Compound 77, N-[[5-[5-(difluoromethyl)-1,3,4-oxadiazol-2-yl]-3-fluoro-2-pyridyl]methyl]-N-(4-fluorophenyl)-1-imino-1-oxo-1,4-thiazinan-4-sulfonamide] | 51.6 nM | > 10000 nM
N=S1(=O)CCN(C(=O)N(Cc2ncc(-c3nnc(C(F)F)o3)cc2F)c2ccccc2F)CC1 [Compound 55] | 140 nM | > 10000 nM
COc1cccc(N(Cc2ccc(-c3nnc(C(F)F)o3)cc2F)S(=O)(=O)N2CCS(=N)(=O)CC2)c1 [Compound 73, N-[[4-[5-(difluoromethyl)-1,3,4-oxadiazol-2-yl]-2-fluoro-phenyl]methyl]-1-imino-N-(3-methoxyphenyl)-1-oxo-1,4-thiazinan-4-sulfonamide] | 72.5 nM | > 10000 nM
N=S1(=O)CCN(C(=O)N(Cc2ccc(-c3nnc(C(F)F)o3)cc2F)c2ccc(F)cc2)CC1 [Compound 63, N-[[4-[5-(difluoromethyl)-1,3,4-oxadiazol-2-yl]-2-fluoro-phenyl]methyl]-N-(4-fluorophenyl)-1-imino-1-oxo-1,4-thiazinan-4-carboxamide] | 99.6 nM | > 10000 nM
N=S1(=O)CCN(C(=O)N(Cc2ccc(-c3nnc(C(F)F)o3)cc2F)c2cc(F)ccc2F)CC1 [Compound 33, N-(4-(5-(difluoromethyl)-1,3,4-oxadiazol-2-y1)-2-fluorobenzyl)-N-(2,5-difluorophenyl)-1-iminothiomorpholin-4-carboxamide 1-oxide] | 51.3 nM | > 10000 nM
N=S1(=O)CCN(C(=O)N(Cc2ccc(-c3nnc(C(F)F)o3)cc2F)c2ccc(SC(F)(F)F)cc2)CC1 [Compound 21, N-(4-(5-(difluoromethyl)-1,3,4-oxadiazol-2-y1)-2-fluorobenzyl)-1-imino-N-(4-((trifluoromethyl)thio)phenyl)thiomorpholin-4-carboxamide 1-oxide] | 294 nM | > 10000 nM
N=S1(=O)CC(N2C[C@@H]3C[C@H]2CN3c2c(N(Cc3ccc(-c4nnc(C(F)F)o4)cn3)c3ccccc3)c(=O)c2=O)C1 (stereo partly drawn) [Compound 87, 3-[N-[[5-[5-(difluoromethyl)-1,3,4-oxadiazol-2-yl]-2-pyridyl]methyl]anilino]-4-[(1S,4S)-5-(1-imino-1-oxo-thiethane-3-yl)-2,5-diazabicyclo[2.2.1]heptan-2-yl]cyclobut-3-en-1,2-dione] | 37.4 nM | > 10000 nM
N=S1(=O)CCN(C(=O)N(Cc2ccc(-c3nnc(C(F)F)o3)cc2F)c2cccc(Br)c2)CC1 [Compound 41, N-(3-bromophenyl)-N-(4-(5-(difluoromethyl)-1,3,4-oxadiazol-2-yl)-2-fluorobenzyl)-1-iminothiomorpholin-4-carboxamide 1-oxide] | 28.9 nM | > 10000 nM
N=S1(=O)CCN(C(=O)N(Cc2ccc(-c3nnc(C(F)F)o3)nn2)c2cccc(F)c2)CC1 [Compound 80, N-[[6-[5-(difluoromethyl)-1,3,4-oxadiazol-2-yl]pyridazin-3-yl]methyl]-N-(3-fluorophenyl)-1-imino-1-oxo-1,4-thiazinan-4-carboxamide] | 146 nM | > 10000 nM
N=S1(=O)CCN(C(=O)N(Cc2ccc(-c3nnc(C(F)F)o3)cc2F)c2ccc(F)c(F)c2)CC1 [Compound 6, N-(4-(5-(difluoromethyl)-1,3,4-oxadiazol-2-yl)-2-fluorobenzyl)-N-(3,4-difluorophenyl)-1-iminothiomorpholin-4-carboxamide 1-oxide] | 50 nM | > 10000 nM
N=S1(=O)CCN(C(=O)N(Cc2ccc(-c3nnc(C(F)F)o3)cn2)c2ccccc2)CC1 [Compound 3, N-((5-(5-(difluoromethyl)-1,3,4-oxadiazol-2-yl)pyridin-2-yl)methyl)-1-imino-N-phenylthiomorpholin-4-carboxamide 1-oxide] | 151 nM | > 10000 nM
CC(=O)N=S1(=O)CCN(C(=O)N(Cc2ccc(-c3nnc(C(F)F)o3)cn2)c2ccccc2)CC1 [Compound 52, 1-(acetylimino)-N-((5-(5-(difluoromethyl)-1,3,4-oxadiazol-2-yl)pyridin-2-yl)methyl)-N-phenylthiomorpholin-4-carboxamide 1-oxide] | 46.9 nM | > 10000 nM
N=S1(=O)CCN(C(=O)N(Cc2ccc(-c3nnc(C(F)F)o3)cc2F)c2ccc(-c3ccco3)cc2)CC1 [Compound 23, N-(4-(5-(difluoromethyl)-1,3,4-oxadiazol-2-yl)-2-fluorobenzyl)-N-(4-(furan-2-yl)phenyl)-1-iminothiomorpholin-4-carboxamide 1-oxide] | 64.4 nM | > 10000 nM
CS(=N)(=O)C1CN(C(=O)N(Cc2ccc(-c3nnc(C(F)F)o3)cc2F)c2cccc(F)c2)C1 (stereo not shown) [Compound 91, N-[[4-[5-(difluoromethyl)-1,3,4-oxadiazol-2-yl]-2-fluoro-phenyl]methyl]-N-(3-fluorophenyl)-3-(methylsulfonimidoyl)azetidin-1-carboxamide] | 46 nM | > 10000 nM
COc1ccc(N(Cc2ccc(-c3nnc(C(F)F)o3)cc2F)C(=O)N2CCS(=N)(=O)CC2)cc1 [Compound 27, N-(4-(5-(difluoromethyl)-1,3,4-oxadiazol-2-y1)-2-fluorobenzyl)-1-imino-N-(4-methoxyphenyl)thiomorpholin-4-carboxamide 1-oxide] | 86.6 nM | > 10000 nM
N=S1(=O)CCN(C(=O)N(Cc2ccc(-c3nnc(C(F)F)o3)cc2F)c2ccc3c(c2)CCO3)CC1 [Compound 22, N-(4-(5-(difluoromethyl)-1,3,4-oxadiazol-2-y1)-2-fluorobenzyl)-N-(2,3-dihydrobenzofuran-5-yl)-1-iminothiomorpholin-4-carboxamide 1-oxide] | 75.2 nM | > 10000 nM
N=S1(=O)CCN(S(=O)(=O)N(Cc2ccc(-c3nnc(C(F)F)o3)cc2F)c2cc(F)ccc2F)CC1 [Compound 69, N-[[4-[5-(difluoromethyl)-1,3,4-oxadiazol-2-yl]-2-fluoro-phenyl]methyl]-N-(2,5-difluorophenyl)-1-imino-1-oxo-1,4-thiazinan-4-sulfonamide] | 124 nM | > 10000 nM
N=S1(=O)CCN(S(=O)(=O)N(Cc2ccc(-c3nnc(C(F)F)o3)cn2)c2cccc(F)c2)CC1 [Compound 36, N-((5-(5-(difluoromethyl)-1,3,4-oxadiazol-2-yl)pyridin-2-yl)methyl)-N-(3-fluorophenyl)-1-iminothiomorpholin-4-sulfonamide 1-oxide] | 30.8 nM | > 10000 nM
CC1CN(C(=O)N(Cc2ccc(-c3nnc(C(F)F)o3)cc2F)c2ccccc2)CCS1(=N)=O (stereo not shown) [Compound 82, N-[[4-[5-(difluoromethyl)-1,3,4-oxadiazol-2-yl]-2-fluoro-phenyl]methyl]-1-imino-2-methyl-1-oxo-N-phenyl-1,4-thiazinan-4-carboxamide] | 93.1 nM | > 10000 nM
O=C(N=S1(=O)CCN(C(=O)N(Cc2ccc(-c3nnc(C(F)F)o3)nn2)c2cccc(F)c2)CC1)OCc1ccccc1 [Compound 79, Benzyl N-[4-[[6-[5-(difluoromethyl)-1,3,4-oxadiazol-2-yl]pyridazin-3-yl]methyl-(3-fluorophenyl)carbamoyl]-1-oxo-1,4-thiazinan-1-ylidene]carbamate] | 87.1 nM | > 10000 nM
